Experimental data taken from the kinase profiling compilation of Christmann-Franck et al. (2016).

Key:
Experiment in all cases: KINOMEscan competition binding
ALK (human) = ALK (human) (UniProt Q9UM73); conditions: compound 10.0 µM
[1] = system: BRAF (human), P15056 [V600E]; conditions: compound 10.0 µM
CAMK1D (human) = CAMK1D (human) (UniProt Q8IU85); conditions: compound 10.0 µM
CAMK2A (human) = CAMK2A (human) (UniProt Q9UQM7); conditions: compound 10.0 µM
CAMK2G (human) = CAMK2G (human) (UniProt Q13555); conditions: compound 10.0 µM
Chain of CAMK2G (human) (Q13555 whole entry, looked up): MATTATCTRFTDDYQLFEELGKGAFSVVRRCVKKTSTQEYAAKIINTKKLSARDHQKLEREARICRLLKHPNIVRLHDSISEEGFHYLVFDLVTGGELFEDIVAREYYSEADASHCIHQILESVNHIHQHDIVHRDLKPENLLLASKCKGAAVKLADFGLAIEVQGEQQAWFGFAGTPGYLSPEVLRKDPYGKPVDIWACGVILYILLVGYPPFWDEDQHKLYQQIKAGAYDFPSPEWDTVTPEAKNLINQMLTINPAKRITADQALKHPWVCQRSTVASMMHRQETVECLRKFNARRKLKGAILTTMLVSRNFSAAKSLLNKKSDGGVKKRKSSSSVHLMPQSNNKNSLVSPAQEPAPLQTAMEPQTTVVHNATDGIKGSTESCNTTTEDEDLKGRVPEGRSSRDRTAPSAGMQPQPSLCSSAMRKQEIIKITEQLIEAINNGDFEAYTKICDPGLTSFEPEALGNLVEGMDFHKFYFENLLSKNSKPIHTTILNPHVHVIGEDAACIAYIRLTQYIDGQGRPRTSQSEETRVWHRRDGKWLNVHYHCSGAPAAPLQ

CDK17 (human) = CDK17 (human) (UniProt Q00537); conditions: compound 10.0 µM
CLK1 (human) = CLK1 (human) (UniProt P49759); conditions: compound 10.0 µM
CSNK2A2 (human) = CSNK2A2 (human) (UniProt P19784); conditions: compound 10.0 µM
[2] = system: EGFR (human), P00533 [746-750 del]; conditions: compound 10.0 µM
[3] = system: EGFR (human), P00533 [T790M]; conditions: compound 10.0 µM
EPHB6 (human) = EPHB6 (human) (UniProt O15197); conditions: compound 10.0 µM
ERBB3 (human) = ERBB3 (human) (UniProt P21860); conditions: compound 10.0 µM
FES (human) = FES (human) (UniProt P07332); conditions: compound 10.0 µM
HIPK1 (human) = HIPK1 (human) (UniProt Q86Z02); conditions: compound 10.0 µM
Chain of HIPK1 (human) (Q86Z02 whole entry, looked up): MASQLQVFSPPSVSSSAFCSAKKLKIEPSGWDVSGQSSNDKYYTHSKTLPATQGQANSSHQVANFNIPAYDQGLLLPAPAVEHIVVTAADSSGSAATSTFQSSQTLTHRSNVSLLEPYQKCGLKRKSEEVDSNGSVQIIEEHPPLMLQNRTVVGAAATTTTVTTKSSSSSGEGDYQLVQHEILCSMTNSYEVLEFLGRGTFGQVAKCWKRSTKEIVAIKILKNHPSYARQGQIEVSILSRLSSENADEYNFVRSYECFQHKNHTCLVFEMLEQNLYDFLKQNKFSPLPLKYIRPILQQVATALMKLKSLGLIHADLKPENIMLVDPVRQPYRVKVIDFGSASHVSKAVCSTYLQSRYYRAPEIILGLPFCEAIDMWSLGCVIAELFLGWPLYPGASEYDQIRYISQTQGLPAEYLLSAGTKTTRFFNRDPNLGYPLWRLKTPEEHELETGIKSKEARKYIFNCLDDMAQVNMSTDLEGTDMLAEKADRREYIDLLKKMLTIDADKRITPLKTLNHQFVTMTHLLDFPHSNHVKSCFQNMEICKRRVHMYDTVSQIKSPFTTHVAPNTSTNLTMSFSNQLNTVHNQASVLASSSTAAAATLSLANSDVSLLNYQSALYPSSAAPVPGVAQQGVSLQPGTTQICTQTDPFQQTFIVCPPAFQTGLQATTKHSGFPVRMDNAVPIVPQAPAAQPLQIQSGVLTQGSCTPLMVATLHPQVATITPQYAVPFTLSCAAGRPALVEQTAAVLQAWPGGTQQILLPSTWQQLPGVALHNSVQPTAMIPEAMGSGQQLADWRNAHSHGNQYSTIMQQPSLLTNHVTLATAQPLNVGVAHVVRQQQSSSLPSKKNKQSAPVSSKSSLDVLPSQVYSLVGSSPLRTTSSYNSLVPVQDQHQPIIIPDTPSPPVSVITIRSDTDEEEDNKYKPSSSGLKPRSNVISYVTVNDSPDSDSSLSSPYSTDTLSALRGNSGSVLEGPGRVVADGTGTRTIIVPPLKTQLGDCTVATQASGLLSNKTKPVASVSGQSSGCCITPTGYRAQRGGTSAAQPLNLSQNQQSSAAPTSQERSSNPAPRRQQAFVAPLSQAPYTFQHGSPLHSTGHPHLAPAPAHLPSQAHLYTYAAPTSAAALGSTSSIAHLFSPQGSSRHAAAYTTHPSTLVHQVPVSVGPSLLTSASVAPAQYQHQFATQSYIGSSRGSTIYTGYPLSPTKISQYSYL

IRAK4 (human) = IRAK4 (human) (UniProt Q9NWZ3); conditions: compound 10.0 µM
KDR (human) = KDR (human) (UniProt P35968); conditions: compound 10.0 µM
Chain of KDR (human) (P35968 whole entry, looked up): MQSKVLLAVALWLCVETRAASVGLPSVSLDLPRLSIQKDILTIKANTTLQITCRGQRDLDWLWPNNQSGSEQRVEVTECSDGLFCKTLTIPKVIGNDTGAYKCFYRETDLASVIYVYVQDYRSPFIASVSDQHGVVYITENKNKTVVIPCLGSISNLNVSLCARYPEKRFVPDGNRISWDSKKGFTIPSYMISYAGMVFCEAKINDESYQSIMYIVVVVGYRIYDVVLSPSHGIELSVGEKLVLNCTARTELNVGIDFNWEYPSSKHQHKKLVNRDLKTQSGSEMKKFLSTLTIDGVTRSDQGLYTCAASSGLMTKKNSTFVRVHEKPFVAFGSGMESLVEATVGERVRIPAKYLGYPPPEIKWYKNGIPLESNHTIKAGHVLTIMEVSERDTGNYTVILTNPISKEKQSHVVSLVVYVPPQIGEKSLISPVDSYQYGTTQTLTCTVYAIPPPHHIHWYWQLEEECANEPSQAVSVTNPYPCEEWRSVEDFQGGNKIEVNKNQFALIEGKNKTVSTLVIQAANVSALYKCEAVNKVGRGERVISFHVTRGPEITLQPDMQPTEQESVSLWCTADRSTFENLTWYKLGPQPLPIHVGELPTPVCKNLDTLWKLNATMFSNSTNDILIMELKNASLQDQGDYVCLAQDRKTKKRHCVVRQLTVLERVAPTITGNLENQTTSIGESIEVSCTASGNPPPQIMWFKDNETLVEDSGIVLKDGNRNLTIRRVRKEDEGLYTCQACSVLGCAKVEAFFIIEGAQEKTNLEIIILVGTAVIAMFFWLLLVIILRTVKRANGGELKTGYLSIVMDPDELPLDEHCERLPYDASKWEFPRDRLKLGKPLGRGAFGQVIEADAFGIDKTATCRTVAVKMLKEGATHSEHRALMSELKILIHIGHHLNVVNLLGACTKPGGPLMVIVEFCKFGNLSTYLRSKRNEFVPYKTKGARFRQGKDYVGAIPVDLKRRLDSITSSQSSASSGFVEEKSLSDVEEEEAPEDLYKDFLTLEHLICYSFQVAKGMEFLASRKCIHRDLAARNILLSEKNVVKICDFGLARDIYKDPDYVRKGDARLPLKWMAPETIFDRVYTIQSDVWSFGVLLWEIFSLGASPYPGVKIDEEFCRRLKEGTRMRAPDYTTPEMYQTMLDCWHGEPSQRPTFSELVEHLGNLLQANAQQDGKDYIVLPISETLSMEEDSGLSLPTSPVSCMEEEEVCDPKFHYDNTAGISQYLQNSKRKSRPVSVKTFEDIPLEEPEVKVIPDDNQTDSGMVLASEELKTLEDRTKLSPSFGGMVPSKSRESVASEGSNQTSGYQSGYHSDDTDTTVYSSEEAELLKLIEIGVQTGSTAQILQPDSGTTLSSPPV

[4] = system: KIT (human), P10721 [L576P]; conditions: compound 10.0 µM
LTK (human) = LTK (human) (UniProt P29376); conditions: compound 10.0 µM
LYN (human) = LYN (human) (UniProt P07948); conditions: compound 10.0 µM
MAP3K3 (human) = MAP3K3 (human) (UniProt Q99759); conditions: compound 10.0 µM
MAP3K6 (human) = MAP3K6 (human) (UniProt O95382); conditions: compound 10.0 µM
MKNK1 (human) = MKNK1 (human) (UniProt Q9BUB5); conditions: compound 10.0 µM
MYO3A (human) = MYO3A (human) (UniProt Q8NEV4); conditions: compound 10.0 µM
NTRK3 (human) = NTRK3 (human) (UniProt Q16288); conditions: compound 10.0 µM
NUAK2 (human) = NUAK2 (human) (UniProt Q9H093); conditions: compound 10.0 µM
[5] = system: PIK3CA (human), P42336 [M1043I]; conditions: compound 10.0 µM
PIK3CG (human) = PIK3CG (human) (UniProt P48736); conditions: compound 10.0 µM
Chain of PIK3CG (human) (P48736 whole entry, looked up): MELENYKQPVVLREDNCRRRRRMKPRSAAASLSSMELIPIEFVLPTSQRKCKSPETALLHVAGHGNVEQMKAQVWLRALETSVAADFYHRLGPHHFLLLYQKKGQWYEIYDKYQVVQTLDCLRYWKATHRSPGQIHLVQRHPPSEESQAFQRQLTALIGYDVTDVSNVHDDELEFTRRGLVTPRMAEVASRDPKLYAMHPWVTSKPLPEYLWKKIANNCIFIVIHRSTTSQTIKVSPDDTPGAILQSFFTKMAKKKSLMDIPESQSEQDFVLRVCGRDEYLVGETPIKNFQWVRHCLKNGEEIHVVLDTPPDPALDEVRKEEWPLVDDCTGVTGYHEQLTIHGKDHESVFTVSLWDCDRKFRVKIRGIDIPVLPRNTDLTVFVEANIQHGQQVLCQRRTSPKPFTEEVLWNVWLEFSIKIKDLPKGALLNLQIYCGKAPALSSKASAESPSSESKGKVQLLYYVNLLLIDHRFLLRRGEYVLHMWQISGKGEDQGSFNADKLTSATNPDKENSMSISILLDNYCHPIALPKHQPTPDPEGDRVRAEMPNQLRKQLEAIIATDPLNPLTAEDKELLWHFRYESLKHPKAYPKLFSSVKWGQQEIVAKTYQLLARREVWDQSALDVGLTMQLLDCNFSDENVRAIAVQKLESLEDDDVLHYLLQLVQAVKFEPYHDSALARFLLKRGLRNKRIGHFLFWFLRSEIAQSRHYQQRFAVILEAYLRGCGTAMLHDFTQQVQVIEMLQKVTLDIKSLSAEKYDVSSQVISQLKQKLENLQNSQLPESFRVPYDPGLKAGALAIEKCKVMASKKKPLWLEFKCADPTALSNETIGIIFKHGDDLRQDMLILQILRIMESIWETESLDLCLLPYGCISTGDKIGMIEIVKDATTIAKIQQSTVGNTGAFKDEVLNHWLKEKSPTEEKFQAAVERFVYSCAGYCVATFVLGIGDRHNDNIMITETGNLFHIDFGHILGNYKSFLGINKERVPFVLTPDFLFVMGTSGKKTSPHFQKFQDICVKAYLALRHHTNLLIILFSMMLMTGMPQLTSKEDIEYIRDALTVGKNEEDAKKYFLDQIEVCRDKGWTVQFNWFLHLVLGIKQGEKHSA

PRKD1 (human) = PRKD1 (human) (UniProt Q15139); conditions: compound 10.0 µM
PTK2 (human) = PTK2 (human) (UniProt Q05397); conditions: compound 10.0 µM
RIPK2 (human) = RIPK2 (human) (UniProt O43353); conditions: compound 10.0 µM
RIPK4 (human) = RIPK4 (human) (UniProt P57078); conditions: compound 10.0 µM
RPS6KA2 KD2 (human) = RPS6KA2 KD2 (human) (UniProt Q15349)
Chain of RPS6KA2 KD2 (human) (Q15349 whole entry, looked up): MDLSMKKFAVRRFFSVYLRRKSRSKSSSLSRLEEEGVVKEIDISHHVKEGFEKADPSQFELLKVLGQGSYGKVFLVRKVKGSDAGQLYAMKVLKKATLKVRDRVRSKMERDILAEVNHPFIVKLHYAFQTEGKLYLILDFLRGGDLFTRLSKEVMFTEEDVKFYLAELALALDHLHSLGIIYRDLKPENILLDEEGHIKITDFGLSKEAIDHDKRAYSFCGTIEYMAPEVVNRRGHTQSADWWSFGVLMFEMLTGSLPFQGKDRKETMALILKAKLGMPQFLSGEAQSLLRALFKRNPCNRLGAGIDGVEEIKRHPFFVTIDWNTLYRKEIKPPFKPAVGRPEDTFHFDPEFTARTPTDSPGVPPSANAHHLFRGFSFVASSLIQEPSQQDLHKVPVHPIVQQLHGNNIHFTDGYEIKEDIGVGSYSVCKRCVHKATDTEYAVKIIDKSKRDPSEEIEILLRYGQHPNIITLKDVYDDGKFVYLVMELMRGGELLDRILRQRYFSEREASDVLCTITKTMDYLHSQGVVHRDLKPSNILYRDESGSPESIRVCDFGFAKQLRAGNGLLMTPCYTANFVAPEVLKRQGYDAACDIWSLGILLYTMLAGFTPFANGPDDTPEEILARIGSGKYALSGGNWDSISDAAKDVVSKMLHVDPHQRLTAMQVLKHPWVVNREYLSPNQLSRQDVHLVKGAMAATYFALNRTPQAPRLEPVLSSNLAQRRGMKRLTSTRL

SIK2 (human) = SIK2 (human) (UniProt Q9H0K1); conditions: compound 10.0 µM
SNRK (human) = SNRK (human) (UniProt Q9NRH2); conditions: compound 10.0 µM
STK10 (human) = STK10 (human) (UniProt O94804); conditions: compound 10.0 µM
STK39 (human) = STK39 (human) (UniProt Q9UEW8); conditions: compound 10.0 µM
TAOK1 (human) = TAOK1 (human) (UniProt Q7L7X3); conditions: compound 10.0 µM
TNK2 (human) = TNK2 (human) (UniProt Q07912); conditions: compound 10.0 µM
[6] = target: TYK2 JH1 catalytic (human) (UniProt P29597); conditions: compound 10.0 µM
ULK2 (human) = ULK2 (human) (UniProt Q8IYT8); conditions: compound 10.0 µM
WEE2 (human) = WEE2 (human) (UniProt P0C1S8); conditions: compound 10.0 µM

`COc1cc(C(=O)N2CCC(N3CCN(C)CC3)CC2)ccc1Nc1ncc2c(n1)N(C)c1ccccc1C(=O)N2C` gave a kinase still bound, per cent of control (ALK (human)) of 13%, a kinase still bound, per cent of control [1] of 100% and a kinase still bound, per cent of control (CAMK1D (human)) of 69%. The kinase still bound, per cent of control (CAMK2A (human)) was 21%, the kinase still bound, per cent of control (CAMK2G (human)) was 47% and the residual activity (CDK17 (human)) was 83%. For the same compound, the kinase still bound, per cent of control (CLK1 (human)) was 28%, the kinase still bound, per cent of control (CSNK2A2 (human)) was 93% and the kinase still bound, per cent of control [2] was 72%. For the same compound, the kinase still bound, per cent of control [3] was 88%, the kinase still bound, per cent of control (EPHB6 (human)) was 31% and the kinase still bound, per cent of control (ERBB3 (human)) was 100%. The kinase still bound, per cent of control (FES (human)) was 84%, the kinase still bound, per cent of control (HIPK1 (human)) was 100% and the kinase still bound, per cent of control (IRAK4 (human)) was 83%. It also gave a kinase still bound, per cent of control (KDR (human)) of 84%, a kinase still bound, per cent of control [4] of 100% and a kinase still bound, per cent of control (LTK (human)) of 32%. For the same compound, the kinase still bound, per cent of control (LYN (human)) was 100%, the kinase still bound, per cent of control (MAP3K3 (human)) was 97% and the kinase still bound, per cent of control (MAP3K6 (human)) was 100%. The kinase still bound, per cent of control (MKNK1 (human)) was 50%, the kinase still bound, per cent of control (MYO3A (human)) was 94% and the kinase still bound, per cent of control (NTRK3 (human)) was 100%. For the same compound, the kinase still bound, per cent of control (NUAK2 (human)) was 47%, the kinase still bound, per cent of control [5] was 65% and the kinase still bound, per cent of control (PIK3CG (human)) was 15%. It also gave a kinase still bound, per cent of control (PRKD1 (human)) of 28%, a kinase still bound, per cent of control (PTK2 (human)) of 34% and a kinase still bound, per cent of control (RIPK2 (human)) of 100%. The kinase still bound, per cent of control (RIPK4 (human)) was 74%, the Kd (RPS6KA2 KD2 (human)) was 1 µM and the kinase still bound, per cent of control (RPS6KA2 KD2 (human); compound 10.0 µM) was 7.5%. It also gave a kinase still bound, per cent of control (SIK2 (human)) of 98%, a kinase still bound, per cent of control (SNRK (human)) of 94% and a kinase still bound, per cent of control (STK10 (human)) of 100%. It also gave a residual activity (STK39 (human)) of 39%, a kinase still bound, per cent of control (TAOK1 (human)) of 28% and a kinase still bound, per cent of control (TNK2 (human)) of 18%. For the same compound, the kinase still bound, per cent of control [6] was 52%, the kinase still bound, per cent of control (ULK2 (human)) was 67% and the kinase still bound, per cent of control (WEE2 (human)) was 100%.
